Reference: patent publication US4156724A, “N-acylamino-alpha-arylacetamido cephalosporins and antibacterial compositions and methods containing them” (Sumitomo Chemical Company, Limited, priority 1974, dated 1979)
≈ marks a conversion by molar mass, not a printed value.

Assays:
Assay type in all cases: cell-based
[1] = system: Enterobacter aerogeneus No. 75; assay: Minimum Inhibitory Concentration, Enterobacter aerogeneus No. 75; conditions: Enterobacter aerogeneus No. 75; for MIC: read-out: Minimum Inhibitory Concentration
Method: (§1) anti-microbial activity tests were carried out on the compounds obtained in the Examples.

Proteus vulgaris HX 19 = assay: Minimum Inhibitory Concentration, Proteus vulgaris HX 19; conditions: Proteus vulgaris HX 19; for MIC: HX19, read-out: Minimum Inhibitory Concentration
Method: as §1

[2] = system: Staphylococcus aureus 209 P; assay: Minimum Inhibitory Concentration, Staphylococcus aureus 209 P; conditions: Staphylococcus aureus 209 P; for MIC: read-out: Minimum Inhibitory Concentration
Method: as §1

[3] = system: Pseudomonas aeruginosa 104; assay: Minimum Inhibitory Concentration, Pseudomonas aeruginosa 104; conditions: Pseudomonas aeruginosa 104; for MIC: read-out: Minimum Inhibitory Concentration
Method: as §1

Escherichia coli NIHJ = assay: Minimum Inhibitory Concentration, Escherichia coli NIHJ; conditions: Escherichia coli NIHJ; for MIC: read-out: Minimum Inhibitory Concentration
Method: as §1

Serratia No. 72 = assay: Minimum Inhibitory Concentration, Serratia No. 72
Method: as §1

[4] = system: Klebsiella pneumoniae 602; assay: Minimum Inhibitory Concentration, Klebsiella pneumoniae 602; conditions: for MIC: Klebsiella pneumoniae, 602, Klebsiella pneumoniae 602, read-out: Minimum Inhibitory Concentration
Method: as §1

[5] = system: Staphylococcus aureus FS 289; assay: Minimum Inhibitory Concentration, Staphylococcus aureus FS 289; conditions: Staphylococcus aureus FS 289, strain resistant to penicillin; for MIC: FS289, read-out: Minimum Inhibitory Concentration
Method: as §1
*Staphylococcus aureus FS 289: strain resistant to penicillin

Compound	MIC [1] [µg/mL]	MIC (Proteus vulgaris HX 19) [µg/mL]	MIC [2] [µg/mL]	MIC [3] [µg/mL]	MIC (Escherichia coli NIHJ) [µg/mL]	MIC (Serratia No. 72) [µg/mL]	MIC [4] [µg/mL]	MIC [5] [µg/mL]	Minimum Inhibitory Concentration [1] [µg/mL]	Minimum Inhibitory Concentration (Proteus vulgaris HX 19) [µg/mL]	Minimum Inhibitory Concentration [2] [µg/mL]	Minimum Inhibitory Concentration [3] [µg/mL]	Minimum Inhibitory Concentration (Escherichia coli NIHJ) [µg/mL]	Minimum Inhibitory Concentration (Serratia No. 72) [µg/mL]	Minimum Inhibitory Concentration ([4]; Klebsiella pneumoniae 602) [µg/mL]	Minimum Inhibitory Concentration [5] [µg/mL]
CC(=O)OCC1=C(C(=O)[O-])N2C(=O)C(NC(=O)C(NC(=O)c3cnc4cccnc4c3O)c3cc(Cl)c(O)c(Cl)c3)C2SC1.[Na+] (centres unmarked) [Example 144]	–	–	–	–	–	–	–	–	12.5	1.56	3.13	6.25	6.25	100	6.25	12.5
Cn1nnnc1SCC1=C(C(=O)O)N2C(=O)C(NC(=O)C(NC(=O)c3cnccc3O)c3ccc(CO)cc3)C2SC1 (centres unmarked) [Example 91]	25 (≈ 40.8 µM)	0.39 (≈ 0.637 µM)	0.78 (≈ 1.27 µM)	12.5 (≈ 20.4 µM)	12.5 (≈ 20.4 µM)	50 (≈ 81.6 µM)	12.5 (≈ 20.4 µM)	6.25 (≈ 10.2 µM)	–	–	–	–	–	–	–	–
Cc1ccc2c(O)c(C(=O)N[C@@H](C(=O)N[C@@H]3C(=O)N4C(C(=O)O)=C(CSc5nnc(C)s5)CS[C@H]34)c3ccc(NC(N)=O)cc3)cnc2n1 [Example 25]	6.25 (≈ 8.66 µM)	0.39 (≈ 0.54 µM)	1.56 (≈ 2.16 µM)	3.13 (≈ 4.34 µM)	3.13 (≈ 4.34 µM)	12.5 (≈ 17.3 µM)	3.13 (≈ 4.34 µM)	6.25 (≈ 8.66 µM)	–	–	–	–	–	–	–	–
CSc1cnc2c(O)c(C(=O)NC(C(=O)NC3C(=O)N4C(C(=O)O)=C(CSc5nnnn5C)CSC34)c3cccc(NC(N)=O)c3)cnc2n1 (centres unmarked) [Example 41]	6.25 (≈ 8.46 µM)	0.2 (≈ 0.271 µM)	1.56 (≈ 2.11 µM)	6.25 (≈ 8.46 µM)	3.13 (≈ 4.24 µM)	12.5 (≈ 16.9 µM)	3.13 (≈ 4.24 µM)	6.25 (≈ 8.46 µM)	–	–	–	–	–	–	–	–
CC(=O)OCC1=C(C(=O)O)N2C(=O)[C@@H](NC(=O)[C@H](NC(=O)c3cnc4cncnc4c3O)c3cccc(NC(N)=O)c3)[C@H]2SC1 [Example 32]	12.5 (≈ 19.6 µM)	0.39 (≈ 0.613 µM)	0.78 (≈ 1.23 µM)	6.25 (≈ 9.82 µM)	3.13 (≈ 4.92 µM)	50 (≈ 78.5 µM)	3.13 (≈ 4.92 µM)	6.25 (≈ 9.82 µM)	–	–	–	–	–	–	–	–
Cn1nnnc1SCC1=C(C(=O)O)N2C(=O)C(NC(=O)C(NC(=O)c3ccnnc3O)c3cccc(N)c3)C2SC1 (centres unmarked) [Example 60]	12.5 (≈ 20.9 µM)	0.1 (≈ 0.167 µM)	0.39 (≈ 0.651 µM)	6.25 (≈ 10.4 µM)	6.25 (≈ 10.4 µM)	50 (≈ 83.5 µM)	6.25 (≈ 10.4 µM)	6.25 (≈ 10.4 µM)	–	–	–	–	–	–	–	–
COc1cnc2c(O)c(C(=O)N[C@@H](C(=O)N[C@@H]3C(=O)N4C(C(=O)O)=C(COC(C)=O)CS[C@H]34)c3cccc(NC(N)=O)c3)cnc2n1 [Example 31]	25 (≈ 37.5 µM)	0.39 (≈ 0.585 µM)	0.78 (≈ 1.17 µM)	6.25 (≈ 9.38 µM)	3.13 (≈ 4.7 µM)	50 (≈ 75 µM)	3.13 (≈ 4.7 µM)	6.25 (≈ 9.38 µM)	–	–	–	–	–	–	–	–
CSc1ccc2ncc(C(=O)N[C@@H](C(=O)N[C@@H]3C(=O)N4C(C(=O)O)=C(CSc5nnc(C)s5)CS[C@H]34)c3cccc(NC(N)=O)c3)c(O)c2n1 [Example 40]	6.25 (≈ 8.29 µM)	0.1 (≈ 0.133 µM)	0.78 (≈ 1.03 µM)	3.13 (≈ 4.15 µM)	3.13 (≈ 4.15 µM)	12.5 (≈ 16.6 µM)	1.56 (≈ 2.07 µM)	6.25 (≈ 8.29 µM)	–	–	–	–	–	–	–	–

Now from value to molecule, other results behind:

MIC [1] [µg/mL]	MIC (Proteus vulgaris HX 19) [µg/mL]	MIC [2] [µg/mL]	MIC [3] [µg/mL]	MIC (Escherichia coli NIHJ) [µg/mL]	MIC (Serratia No. 72) [µg/mL]	MIC [4] [µg/mL]	MIC [5] [µg/mL]	Compound	Minimum Inhibitory Concentration [1] [µg/mL]	Minimum Inhibitory Concentration (Proteus vulgaris HX 19) [µg/mL]	Minimum Inhibitory Concentration [2] [µg/mL]	Minimum Inhibitory Concentration [3] [µg/mL]	Minimum Inhibitory Concentration (Escherichia coli NIHJ) [µg/mL]	Minimum Inhibitory Concentration (Serratia No. 72) [µg/mL]	Minimum Inhibitory Concentration ([4]; Klebsiella pneumoniae 602) [µg/mL]	Minimum Inhibitory Concentration [5] [µg/mL]
25 (≈ 44.8 µM)	0.78 (≈ 1.4 µM)	0.78 (≈ 1.4 µM)	12.5 (≈ 22.4 µM)	12.5 (≈ 22.4 µM)	> 200	25 (≈ 44.8 µM)	3.13 (≈ 5.6 µM)	CC(=O)OCC1=C(C(=O)O)N2C(=O)C(NC(=O)C(NC(=O)c3cnccc3O)c3ccc(O)c(O)c3)C2SC1 (centres unmarked) [Example 182]	–	–	–	–	–	–	–	–
25 (≈ 40.7 µM)	0.78 (≈ 1.27 µM)	0.78 (≈ 1.27 µM)	25 (≈ 40.7 µM)	25 (≈ 40.7 µM)	50 (≈ 81.5 µM)	12.5 (≈ 20.4 µM)	12.5 (≈ 20.4 µM)	Cn1nnnc1SCC1=C(C(=O)O)N2C(=O)C(NC(=O)C(NC(=O)c3cncnc3O)c3ccc(CO)cc3)C2SC1 (centres unmarked) [Example 94]	–	–	–	–	–	–	–	–
6.25 (≈ 9.61 µM)	0.39 (≈ 0.599 µM)	0.78 (≈ 1.2 µM)	3.13 (≈ 4.81 µM)	3.13 (≈ 4.81 µM)	12.5 (≈ 19.2 µM)	6.25 (≈ 9.61 µM)	12.5 (≈ 19.2 µM)	Cn1nnnc1SCC1=C(C(=O)O)N2C(=O)C(NC(=O)[C@H](NC(=O)c3cnc4cncnc4c3O)c3ccc(O)cc3)C2SC1 (some centres unmarked) [Example 154]	–	–	–	–	–	–	–	–
12.5 (≈ 17.6 µM)	0.78 (≈ 1.1 µM)	1.56 (≈ 2.19 µM)	12.5 (≈ 17.6 µM)	6.25 (≈ 8.79 µM)	50 (≈ 70.3 µM)	6.25 (≈ 8.79 µM)	12.5 (≈ 17.6 µM)	CSc1ncc2c(O)c(C(=O)NC(C(=O)NC3C(=O)N4C(C(=O)O)=C(CSc5nnnn5C)CSC34)c3ccc(CO)cc3)cnc2n1 (centres unmarked) [Example 109]	–	–	–	–	–	–	–	–
6.25 (≈ 8.6 µM)	0.39 (≈ 0.537 µM)	0.78 (≈ 1.07 µM)	6.25 (≈ 8.6 µM)	3.13 (≈ 4.31 µM)	25 (≈ 34.4 µM)	3.13 (≈ 4.31 µM)	6.25 (≈ 8.6 µM)	CSc1ccc2ncc(C(=O)N[C@@H](C(=O)NC3C(=O)N4C(C(=O)O)=C(CSc5nnc(CN)s5)CSC34)c3ccc(O)cc3)c(O)c2n1 (some centres unmarked) [Example 153]	–	–	–	–	–	–	–	–
